Where “and” joins values, the source holds several entries; their conditions need not be identical. Equal values may be shown once.
Key:
Recombinant human DESC1 = biological target: T1, Recombinant human DESC1 (Homo sapiens, UniProt Q9UL52); test: Protease selectivity, Ki on recombinant protease; format: biochemical; details: mean ± s.d., max concentration 10 µM; read-out: Ki DESC1
T1 construct: made in house
T1 sequence (Q9UL52 1-423): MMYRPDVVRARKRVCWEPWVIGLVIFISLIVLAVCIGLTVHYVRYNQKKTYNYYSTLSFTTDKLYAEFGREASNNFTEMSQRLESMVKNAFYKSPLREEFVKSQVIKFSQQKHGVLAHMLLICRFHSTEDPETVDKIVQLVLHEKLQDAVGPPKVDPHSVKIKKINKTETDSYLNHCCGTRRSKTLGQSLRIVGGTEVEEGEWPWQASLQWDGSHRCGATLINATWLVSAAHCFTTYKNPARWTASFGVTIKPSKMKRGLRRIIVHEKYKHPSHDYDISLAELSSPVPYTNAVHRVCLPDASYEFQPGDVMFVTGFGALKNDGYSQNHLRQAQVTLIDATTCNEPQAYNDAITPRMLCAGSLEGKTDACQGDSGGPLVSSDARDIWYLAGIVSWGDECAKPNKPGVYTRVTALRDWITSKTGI

[1] = tested on: SARS-CoV-2 B.1.617.2 (Delta); design: species or system K18-hACE2 mice; details: mouse, in vivo
[2] = tested on: SARS-CoV-2 lineage B strain (VIDO); test: microbe, parasite or virus in culture; format: cell-based
Recombinant human furin = biological target: T2, Recombinant human furin (Homo sapiens, UniProt P09958); test: Protease selectivity, Ki on recombinant protease; format: biochemical; details: mean ± s.d., max concentration 10 µM; read-out: Ki Furin
T2 construct: purchased Bio-Techne
T2 sequence (P09958 108-794): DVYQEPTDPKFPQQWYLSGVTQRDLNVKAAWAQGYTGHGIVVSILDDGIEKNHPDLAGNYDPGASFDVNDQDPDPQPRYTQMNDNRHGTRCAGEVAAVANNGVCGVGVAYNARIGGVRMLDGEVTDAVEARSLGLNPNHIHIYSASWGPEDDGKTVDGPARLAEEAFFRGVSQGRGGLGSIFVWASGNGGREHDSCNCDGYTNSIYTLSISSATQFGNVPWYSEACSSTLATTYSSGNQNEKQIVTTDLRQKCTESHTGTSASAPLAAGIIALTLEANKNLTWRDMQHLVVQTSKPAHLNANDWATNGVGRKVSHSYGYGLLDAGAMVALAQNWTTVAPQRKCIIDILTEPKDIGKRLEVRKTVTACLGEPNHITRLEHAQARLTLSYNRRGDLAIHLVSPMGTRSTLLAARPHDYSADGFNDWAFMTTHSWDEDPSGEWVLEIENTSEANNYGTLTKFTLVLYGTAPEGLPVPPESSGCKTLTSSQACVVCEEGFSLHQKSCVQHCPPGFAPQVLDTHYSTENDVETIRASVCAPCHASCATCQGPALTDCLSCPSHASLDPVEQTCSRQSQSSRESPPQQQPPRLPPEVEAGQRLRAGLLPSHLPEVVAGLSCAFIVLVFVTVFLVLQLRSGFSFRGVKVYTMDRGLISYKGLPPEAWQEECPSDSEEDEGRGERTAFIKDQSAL

[3] = tested on: SARS-CoV-2 B.1.1.7 (Alpha); test: microbe, parasite or virus in culture; format: cell-based; details: UK
[4] = Cytotoxicity CC50 in Calu-3 lung epithelial cells; format: cell-based, human; details: human; Calu-3 lung epithelial cells, n = 2; read-out: CC50 in Calu-3 cells
human cathepsin L = biological target: T3, human cathepsin L (Homo sapiens, UniProt P07711); test: Protease selectivity, Ki on protease; format: biochemical; details: mean ± s.d., max concentration 10 µM; read-out: Ki Cathepsin L
T3 construct: purchased Bio-Techne
T3 sequence (P07711 114-333): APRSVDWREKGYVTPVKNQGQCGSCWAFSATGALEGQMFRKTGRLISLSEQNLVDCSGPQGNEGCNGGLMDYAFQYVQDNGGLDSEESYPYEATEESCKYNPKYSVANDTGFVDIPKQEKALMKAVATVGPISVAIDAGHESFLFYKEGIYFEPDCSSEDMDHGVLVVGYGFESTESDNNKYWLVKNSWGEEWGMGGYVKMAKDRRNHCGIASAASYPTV

[5] = tested on: SARS-CoV-2 B.1.351 (Beta); test: microbe, parasite or virus in culture; format: cell-based; details: SA
human TMPRSS2 = human TMPRSS2 (Homo sapiens, UniProt O15393); test: cell-based
Sequence of human TMPRSS2 (O15393 whole entry): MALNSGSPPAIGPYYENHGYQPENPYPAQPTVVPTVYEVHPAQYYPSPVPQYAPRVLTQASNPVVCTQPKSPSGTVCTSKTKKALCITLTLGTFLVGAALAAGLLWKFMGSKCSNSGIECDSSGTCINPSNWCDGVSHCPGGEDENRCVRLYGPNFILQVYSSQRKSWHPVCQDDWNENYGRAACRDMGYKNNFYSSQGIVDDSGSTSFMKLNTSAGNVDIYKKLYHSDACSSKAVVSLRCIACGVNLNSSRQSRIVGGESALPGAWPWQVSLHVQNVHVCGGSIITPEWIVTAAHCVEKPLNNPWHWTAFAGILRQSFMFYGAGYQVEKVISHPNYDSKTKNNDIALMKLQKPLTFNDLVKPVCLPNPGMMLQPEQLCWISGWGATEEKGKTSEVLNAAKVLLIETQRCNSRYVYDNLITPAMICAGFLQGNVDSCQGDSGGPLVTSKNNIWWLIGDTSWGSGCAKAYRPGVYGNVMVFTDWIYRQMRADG

Question: With `CS(=O)(=O)NC(CCC(N)=O)C(=O)NC(Cc1ccccc1)C(=O)NC(CCCNC(=N)N)C(=O)c1nc2ccccc2s1` (stereo not drawn) [Compound N-0385, Ms-QFR-kbt] as the molecule, how does the Ki (Recombinant human DESC1) read?
Answer: 0.0266 ± 0.0088 µM

Question: And the “weight gain (six days after infection)” value [1]?
Answer: 2%

Question: What about the “weight loss (six days after infection)” value [1] of the same molecule?
Answer: 5%

Question: And the Nucleocapsid ([2]; Figure 2a, two replicates, DMSO control about 91-94)?
Answer: 1.14 and 1.542

Question: What about the dsRNA ([2]; Figure 2a, two replicates, DMSO control about 93-95) of the same molecule?
Answer: 2.011 and 2.808

Question: What about the EC50 ([2]; Severe acute respiratory syndrome coronavirus 2, Calu-3, read-out: SARS-CoV-2 VIDO Nucleocapsid EC50 ± SE) of the same molecule?
Answer: 0.0028 ± 0.0014 µM

Question: And the inhibition at 0.1 µM ([2]; Severe acute respiratory syndrome coronavirus 2, Calu-3, read-out: inhibition of SARS-CoV-2 infection)?
Answer: > 99%

Question: And the “Figure 2b dose-response, Mean” value ([2]; log [C] (nM) 0.20412)?
Answer: 56.2346

Question: And the “Figure 2b dose-response, Mean” value ([2]; log [C] (nM) 0.90309)?
Answer: 18.4653

Question: And the “Figure 2b dose-response, Mean” value ([2]; log [C] (nM) 1.60206)?
Answer: 7.161

Question: What about the “Figure 2b dose-response, Mean” value ([2]; log [C] (nM) 2.30103) of the same molecule?
Answer: 5.446

Question: And the “Figure 2b dose-response, Mean” value ([2]; log [C] (nM) 3)?
Answer: 1.469

Question: What about the “Figure 2b dose-response, Mean” value ([2]; log [C] (nM) -0.49485) of the same molecule?
Answer: 74.438

Question: What about the “Figure 2b dose-response, Mean” value ([2]; log [C] (nM) -1.19382) of the same molecule?
Answer: 85.6866

Question: What about the Ki (Recombinant human furin) of the same molecule?
Answer: > 10 µM

Question: What about the “infection, dose response Figure 3c (nucleocapsid)” value (“infection, dose response Figure 3c” below) ([3]; log [C] (nM) -0.49485) of the same molecule?
Answer: 100.507 and 68.1892 and 93.9276 and 91.6566 and 100

Question: What about the “infection, dose response Figure 3d (dsRNA)” value (“infection … (dsRNA)” below) ([3]; log [C] (nM) -0.49485) of the same molecule?
Answer: 68.6997 and 68.3556 and 77.9197 and 68.9 and 100

Question: What about the “infection, dose response Figure 3c” value ([3]; log [C] (nM) -1.19382) of the same molecule?
Answer: 96.9973 and 100 and 88.1248

Question: What about the “infection … (dsRNA)” value ([3]; log [C] (nM) -1.19382) of the same molecule?
Answer: 83.4401 and 68.4372 and 71.2209 and 84.9067 and 100

Question: And the CC50 at 24 h [4]?
Answer: 3470 µM

Question: What about the Ki (human cathepsin L) of the same molecule?
Answer: 6.29 ± 3.61 µM

Question: What about the “infection, dose response Figure 3c” value ([5]; log [C] (nM) 0.20412) of the same molecule?
Answer: 79.6793 and 91.7767 and 88.3707 and 72.9139 and 58.6745

Question: And the “infection … (dsRNA)” value ([5]; log [C] (nM) 0.20412)?
Answer: 63.8002 and 67.3054 and 60.7262 and 87.9301 and 97.1304

Question: What about the “infection, dose response Figure 3c” value ([5]; log [C] (nM) 0.90309) of the same molecule?
Answer: 43.2222 and 77.2087 and 78.2089 and 72.2128 and 63.0729

Question: And the “infection … (dsRNA)” value ([5]; log [C] (nM) 0.90309)?
Answer: 54.6567 and 62.1742 and 66.7756 and 99.2713 and 89.1898

Question: And the “infection, dose response Figure 3c” value ([5]; log [C] (nM) 1.60206)?
Answer: 26.0524 and 35.9809 and 32.5888 and 37.5917 and 24.568

Question: What about the “infection … (dsRNA)” value ([5]; log [C] (nM) 1.60206) of the same molecule?
Answer: 39.7311 and 51.7136 and 44.1381 and 59.5864 and 41.1574

Question: And the “infection, dose response Figure 3c” value ([5]; log [C] (nM) -0.49485)?
Answer: 80.9236 and 100 and 89.9432 and 52.6441

Question: What about the “infection … (dsRNA)” value ([5]; log [C] (nM) -0.49485) of the same molecule?
Answer: 76.5319 and 75.7767 and 69.4582 and 92.7897 and 93.6397

Question: What about the “infection, dose response Figure 3c” value ([5]; log [C] (nM) -1.19382) of the same molecule?
Answer: 96.6594 and 91.8391 and 98.1873 and 70.3455

Question: What about the “infection … (dsRNA)” value ([5]; log [C] (nM) -1.19382) of the same molecule?
Answer: 75.3943 and 74.8717 and 100 and 96.2799

Question: And the “TMPRSS2 activity (%)” value (human TMPRSS2; Figure 1B, single experiments N1-N3)?
Answer: 12.847% and 18.5887% and 21.0267%

Question: And the inhibition at 0.01 µM (human TMPRSS2; Vero C1008, 10 nM compound, 24 h, vs untreated/vehicle TMPRSS2-expressing Vero E6 cells, read-out: inhibition of TMPRSS2 activity (reduction of substrate proteolysis))?
Answer: 83%
